{"source": "ChEMBL document CHEMBL3243920", "about": "“Quantitative structure-activity relationships of chymotrypsin. On the predictive value of correlation equations” (J Med Chem, 1977)", "assay": "Inhibition of chymotrypsin (unknown origin)", "conditions": "Homo sapiens", "data": [{"smiles": "N#Cc1ccc(NC=O)cc1", "values": [{"measurement": "log1/Ki", "result": 1.9}]}, {"smiles": "O=C(O)C(Cc1ccc(F)cc1F)NC(=O)C(F)(F)F", "note": "(stereo not drawn)", "values": [{"measurement": "log1/Ki", "result": 2.35}]}, {"smiles": "COC(=O)c1nc2ccccc2[nH]1", "values": [{"measurement": "log1/Ki", "result": 2.25}]}, {"smiles": "O=C(O)C(Cc1cccc(F)c1)NC(=O)C(F)(F)F", "note": "(stereo not drawn)", "values": [{"measurement": "log1/Ki", "result": 2.57}]}, {"smiles": "CC(=O)Nc1ccccc1", "values": [{"measurement": "log1/Ki", "result": 1.89}]}, {"smiles": "O=C(O)C(Cc1ccccc1)NC(=O)C(F)(F)F", "note": "(stereo not drawn)", "values": [{"measurement": "log1/Ki", "result": 2.1}]}, {"smiles": "Cc1ccc(NC=O)cc1", "values": [{"measurement": "log1/Ki", "result": 2.52}]}, {"smiles": "CC(=O)NCc1ccccc1", "values": [{"measurement": "log1/Ki", "result": 2.12}]}, {"smiles": "O=C(NCCc1c[nH]c2ccccc12)C(F)(F)F", "values": [{"measurement": "log1/Ki", "result": 2.92}]}, {"smiles": "NC(=O)CCc1ccccc1", "values": [{"measurement": "log1/Ki", "result": 2.15}]}, {"smiles": "CCC(=O)Nc1ccccc1", "values": [{"measurement": "log1/Ki", "result": 2.18}]}, {"smiles": "CC(=O)NCCc1ccccc1", "values": [{"measurement": "log1/Ki", "result": 1.94}]}, {"smiles": "O=CNc1cccc(Cl)c1", "values": [{"measurement": "log1/Ki", "result": 3.1}]}, {"smiles": "O=C(O)C(Cc1ccc(Br)cc1)NC(=O)C(F)(F)F", "note": "(stereo not drawn)", "values": [{"measurement": "log1/Ki", "result": 3}]}, {"smiles": "COc1ccc(NC=O)cc1", "values": [{"measurement": "log1/Ki", "result": 2.06}]}, {"smiles": "O=CNc1ccc(Cl)cc1", "values": [{"measurement": "log1/Ki", "result": 3.4}]}, {"smiles": "Cc1cccc(CC(NC(=O)C(F)(F)F)C(=O)O)c1", "note": "(stereo not drawn)", "values": [{"measurement": "log1/Ki", "result": 2.35}]}, {"smiles": "CC(=O)NCCc1c[nH]c2ccccc12", "values": [{"measurement": "log1/Ki", "result": 2.74}]}, {"smiles": "O=C(O)C(Cc1ccc(F)cc1)NC(=O)C(F)(F)F", "note": "(stereo not drawn)", "values": [{"measurement": "log1/Ki", "result": 2.89}]}, {"smiles": "O=C(CCl)NCc1ccccc1", "values": [{"measurement": "log1/Ki", "result": 2.31}]}, {"smiles": "NC(=O)Cc1ccccc1", "values": [{"measurement": "log1/Ki", "result": 1.82}]}, {"smiles": "NC(=O)CCCc1ccccc1", "values": [{"measurement": "log1/Ki", "result": 1.92}]}, {"smiles": "NC(=O)CCc1c[nH]c2ccccc12", "values": [{"measurement": "log1/Ki", "result": 2.64}]}, {"smiles": "NC(=O)c1ccnc2ccccc12", "values": [{"measurement": "log1/Ki", "result": 2.08}]}, {"smiles": "CCC(=O)NCc1ccccc1", "values": [{"measurement": "log1/Ki", "result": 2.2}]}, {"smiles": "O=C(CCl)NCCc1ccccc1", "values": [{"measurement": "log1/Ki", "result": 2}]}, {"smiles": "CC(=O)c1ccc(NC=O)cc1", "values": [{"measurement": "log1/Ki", "result": 1.72}]}, {"smiles": "COc1cccc(NC=O)c1", "values": [{"measurement": "log1/Ki", "result": 2.17}]}, {"smiles": "NC(=O)CNC(=O)c1ccccc1", "values": [{"measurement": "log1/Ki", "result": 1.9}]}, {"smiles": "O=CNc1ccccc1", "values": [{"measurement": "log1/Ki", "result": 2.4}]}, {"smiles": "O=CNc1ccc([N+](=O)[O-])cc1", "values": [{"measurement": "log1/Ki", "result": 2.42}]}, {"smiles": "NC(=O)c1ccccc1", "values": [{"measurement": "log1/Ki", "result": 2}]}, {"smiles": "Cc1ccc(CC(NC(=O)C(F)(F)F)C(=O)O)cc1", "note": "(stereo not drawn)", "values": [{"measurement": "log1/Ki", "result": 2.82}]}]}
